Patent EP4299736A2, “HYDROLASES AND USES THEREOF” (Vilnius University, priority 2022, dated 2024)

Tested on: hydrolases SEQ ID NO: 1-41
Assay: Analysis of substrate spectrum of hydrolases (TLC, HPLC-MS, GC-MS); further: key: '+'- active; ' –' inactive towards derivative
Format: biochemical
Description: A hydrolytic activity of enzymes was analysed by thin-layer chromatography (TLC), high-performance liquid chromatography and a mass spectrometry (HPLC-MS) and Gas chromatography and a mass spectrometry (GC-MS) methods. Nucleosides, as substrates and hydrolysis reaction products, were tested by thin-layer chromatography (TLC) method and by a high-performance liquid chromatography - mass spectroscopy (HPLC-MS) method. Other reaction products were detected by Gas chromatography-Mass spectrometry (GC-MS) system. […] The conditions of the reactions are given below.
Hydrolysis products test by thin-layer chromatography (TLC) method. A hydrolytic activity was assayed in reaction mixture containing 45 mM potassium phosphate buffer, pH 7.5, 1 µl enzyme (0.1-4.6 µg/reaction) and 4 mM substrate. The total reaction mix volume was 20 µl. Reaction mixture were incubated at 30 °C temperature up to 3 h and at RT overnight. Thin-layer chromatography (TLC) was conducted on the Merck silica gel 60 F254 plates, using the chloroform and methanol (5:1) mixture of solvents.
High-performance liquid chromatography/mass spectrometry (HPLC-MS) analysis of hydrolysis reaction products. […] Mass scans were measured from m/z 10 up to m/z 500, at 350 °C interface temperature, 250 °C DL temperature, ±4,500 V interface voltage, neutral DL/Qarray, using N 2 as nebulizing and drying gas. Mass spectrometry data was acquired in both the positive and negative ionization mode. The data was analysed using the LabSolutions LCMS software. For HPLC-MS analysis, the reaction mixture consisted of 45 mM potassium phosphate buffer (pH 7.5), 2 mM substrate (from 50-100 mM stock in DMSO), and protein (-0.5-1 mg/ ml). Reaction mixture was incubated at 30 °C temperature up to 3 h and at RT overnight.
Gas chromatography-Mass spectrometry (GC-MS) analysis of hydrolysis reaction products. GC-MS analyses were performed with a Shimadzu GCMS-QP2010 Ultra Plus (Kyoto, Japan). […] Temperature program -50°C (1 min), 50°C →250 °C (25 °C/min), total run time - 15 min. The temperatures of injector, interface and ion source were 250°C.
For GC-MS analysis, the reaction mixture consisted of 45 mM potassium phosphate buffer (pH 7.5), 2.4 mM substrate (from 50-100 mM stock in DMSO), and protein (-0.5-1 mg/ ml). The total reaction mix volume was 1000 µl. The hydrolysis reaction products were extracted with ethyl acetate (3x 400 µl).

Measured: Hydrolysis of S^4-alkyl uridine derivatives

O=c1nc(SCc2ccccc2)c(F)cn1[C@@H]1O[C@H](CO)[C@@H](O)[C@H]1O [5-F-4-S-benzyl-U]
+: enzyme SEQ ID No:1 | enzyme SEQ ID No:2 | enzyme SEQ ID No:3 | enzyme SEQ ID No:4 | enzyme SEQ ID No:9 | enzyme SEQ ID No:25 | enzyme SEQ ID No:30 | enzyme SEQ ID No:34 | enzyme SEQ ID No:35

CCCSc1ccn([C@@H]2O[C@H](CO)[C@@H](O)[C@H]2O)c(=O)n1 [4-S-n-propyl-U]
+: enzyme SEQ ID No:1 | enzyme SEQ ID No:3 | enzyme SEQ ID No:4

CC(C)Sc1ccn([C@@H]2O[C@H](CO)[C@@H](O)[C@H]2O)c(=O)n1 [4-S-iso-propyl-U]
+: enzyme SEQ ID No:1 | enzyme SEQ ID No:3 | enzyme SEQ ID No:4

CSc1nc(=O)n([C@@H]2O[C@H](CO)[C@@H](O)[C@H]2O)cc1F [5-F-4-S-methyl-U]
+: enzyme SEQ ID No:1 | enzyme SEQ ID No:2 | enzyme SEQ ID No:3 | enzyme SEQ ID No:4 | enzyme SEQ ID No:6 | enzyme SEQ ID No:9 | enzyme SEQ ID No:25 | enzyme SEQ ID No:26 | enzyme SEQ ID No:27 | enzyme SEQ ID No:28 | enzyme SEQ ID No:29 | enzyme SEQ ID No:30 | enzyme SEQ ID No:32 | enzyme SEQ ID No:33 | enzyme SEQ ID No:34 | enzyme SEQ ID No:35 | enzyme SEQ ID No:36 | enzyme SEQ ID No:37 | enzyme SEQ ID No:38

CCSc1nc(=O)n([C@@H]2O[C@H](CO)[C@@H](O)[C@H]2O)cc1F [5-F-4-S-ethyl-U]
+: enzyme SEQ ID No:1 | enzyme SEQ ID No:2 | enzyme SEQ ID No:3 | enzyme SEQ ID No:4 | enzyme SEQ ID No:6 | enzyme SEQ ID No:9 | enzyme SEQ ID No:25 | enzyme SEQ ID No:27 | enzyme SEQ ID No:28 | enzyme SEQ ID No:30 | enzyme SEQ ID No:32 | enzyme SEQ ID No:34 | enzyme SEQ ID No:35 | enzyme SEQ ID No:36 | enzyme SEQ ID No:37 | enzyme SEQ ID No:38

O=c1nc(Sc2ccccc2)c(F)cn1[C@@H]1O[C@H](CO)[C@@H](O)[C@H]1O [5F-4-S-phenyl-U]
+: enzyme SEQ ID No:1 | enzyme SEQ ID No:4 | enzyme SEQ ID No:35 | enzyme SEQ ID No:38

CC(C)CSc1ccn([C@@H]2O[C@H](CO)[C@@H](O)[C@H]2O)c(=O)n1 [4-S-iso-butyl-U]
+: enzyme SEQ ID No:1 | enzyme SEQ ID No:3 | enzyme SEQ ID No:4

O=c1nc(SCc2ccccc2)ccn1[C@@H]1O[C@H](CO)[C@@H](O)[C@H]1O [4-S-benzyl-U]
+: enzyme SEQ ID No:1 | enzyme SEQ ID No:2 | enzyme SEQ ID No:3 | enzyme SEQ ID No:4 | enzyme SEQ ID No:9 | enzyme SEQ ID No:10 | enzyme SEQ ID No:13 | enzyme SEQ ID No:14 | enzyme SEQ ID No:21 | enzyme SEQ ID No:25 | enzyme SEQ ID No:28 | enzyme SEQ ID No:30 | enzyme SEQ ID No:34 | enzyme SEQ ID No:35 | enzyme SEQ ID No:38 | enzyme SEQ ID No:39 | enzyme SEQ ID No:41

CCSc1ccn([C@@H]2O[C@H](CO)[C@@H](O)[C@H]2O)c(=O)n1 [4-S-ethyl-U]
+: enzyme SEQ ID No:1 | enzyme SEQ ID No:2 | enzyme SEQ ID No:3 | enzyme SEQ ID No:4 | enzyme SEQ ID No:6 | enzyme SEQ ID No:9 | enzyme SEQ ID No:21 | enzyme SEQ ID No:25 | enzyme SEQ ID No:26 | enzyme SEQ ID No:27 | enzyme SEQ ID No:28 | enzyme SEQ ID No:29 | enzyme SEQ ID No:30 | enzyme SEQ ID No:31 | enzyme SEQ ID No:32 | enzyme SEQ ID No:33 | enzyme SEQ ID No:34 | enzyme SEQ ID No:35 | enzyme SEQ ID No:36 | enzyme SEQ ID No:37 | enzyme SEQ ID No:38 | enzyme SEQ ID No:39 | enzyme SEQ ID No:40 | enzyme SEQ ID No:41
